Target: Human CYP2D6 + P450 Reductase SUPERSOMES (Homo sapiens, UniProt P10635)
Settings: 0.1 µM, 2D6 Supersomes
Procedure: Plates were then spun in the centrifuge for 10 minutes at 3000 rpm.

Human CYP2D6 + P450 Reductase SUPERSOMES, sequence (P10635 whole entry): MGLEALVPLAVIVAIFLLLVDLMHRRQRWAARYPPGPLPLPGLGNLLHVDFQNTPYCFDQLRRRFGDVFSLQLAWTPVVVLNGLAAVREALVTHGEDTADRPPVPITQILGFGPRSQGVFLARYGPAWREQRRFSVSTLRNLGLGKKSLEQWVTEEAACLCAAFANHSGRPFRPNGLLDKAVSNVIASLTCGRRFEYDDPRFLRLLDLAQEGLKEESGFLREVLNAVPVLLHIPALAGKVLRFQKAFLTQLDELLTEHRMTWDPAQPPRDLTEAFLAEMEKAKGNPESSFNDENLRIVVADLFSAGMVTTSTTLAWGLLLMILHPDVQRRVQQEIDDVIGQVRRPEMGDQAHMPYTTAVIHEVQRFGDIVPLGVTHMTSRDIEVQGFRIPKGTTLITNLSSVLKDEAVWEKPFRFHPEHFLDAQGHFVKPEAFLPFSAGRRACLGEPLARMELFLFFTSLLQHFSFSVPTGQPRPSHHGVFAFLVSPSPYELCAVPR

Compound: COc1ccc2c(c1)[C@]13CCCC[C@@H]1[C@H](C2)N(C)CC3 [dextromethorphan, (+)-3-methoxy-17-methyl-(9α,13α,14α)-morphinan]
- intact compound at the 20 minute time point: no intact dextromethorphan could be detected

Reference: patent EP3632916B1, “MORPHINAN COMPOUNDS” (Concert Pharmaceuticals Inc., priority 2007, dated 2008)
